In patent US20080227863A1, “Organic Compounds” (Novartis AG, priority 2005, published 2008):

- melting point: 154 to 155 °C
Compound: N#CC(C#N)(COc1ccccc1Cl)NC(=O)c1ccc(OC(F)(F)F)cc1 [Compound 1.3, N-[2-(2-Chloro-phenoxy)-1,1-dicyano-ethyl]-4-trifluoromethoxy-benzamide]
